What was measured:
[1] = system: HeLa; assay: The compound was evaluated for its inhibitory activity against HeLa S3 cells in the presence of photoirradiation.; type: functional, cell-based; details: Homo sapiens, light or radiation study
[2] = system: HeLa; assay: The compound was evaluated for its inhibitory activity against HeLa S3 cells in the absence of photoirradiation.; type: functional, cell-based; details: Homo sapiens, light or radiation study

Row | IC50 [1] | IC50 [2] | Structure (SMILES)
1 | 1.9 µM | 8.8 µM | C[C@@H]1O[C@@H](OCc2ccc3c(c2O)C(=O)c2ccccc2C3=O)C[C@@H](N(C)C)[C@@H]1O
2 | 4.3 µM | 13 µM | C[C@@H]1O[C@H](OCc2ccc3c(c2O)C(=O)c2ccccc2C3=O)C[C@@H](N(C)C)[C@@H]1O
3 | 4.8 µM | 9 µM | CC1OC(c2ccc3c(c2O)C(=O)c2ccccc2C3=O)CC(N(C)C)C1O (stereo unspecified)

Reference: ChEMBL document CHEMBL1132738, “Carbohydrate-modulated DNA photocleavage: design, synthesis, and evaluation of novel glycosyl anthraquinones” (Bioorg Med Chem Lett, 2000)
